Results as given in patent publication US20020111274A1, “1-alkyl-3-[1-(substituted phenyl) benzotriazol-6-yl] uracils” (BASF Aktiengesellschaft, priority 2000, published 2002).

Tests used:
Parameters in all cases: scale not given here
ECHOG Barnyardgrass = assay: Postemergence herbicidal evaluation, ECHOG; assay type: in vivo, Echinochloa crus-galli, (L.) Beau; settings: postemergence spray, rated about two-three weeks after treatment
Protocol: (§1) In this evaluation, seedling plants are grown in jiffy flats for about two weeks. The test compounds are dispersed in 80/20 acetone/water mixtures containing 1.0% SUN-IT® II, a methylated seed oil, in sufficient quantities to provide the equivalent of about 0.006 kg to 0.400 kg per hectare of active compound when applied to the plants through a spray nozzle operating at 40 psi for a predetermined time. After spraying, the plants are placed on greenhouse benches and are cared for in accordance with conventional greenhouse procedures. Approximately two - three weeks after treatment, the seedling plants are examined and rated according to the rating system set forth below. Where more than one test is involved for a given compound, the data are averaged.

ZEAMX Corn, Field [1] = assay: Preemergence herbicidal evaluation, ZEAMX; assay type: in vivo, Zea mays, L. (Sammel-Bezeichnung); settings: preemergence
Excerpt: (§2) The preemergence herbicidal activity of the test compounds of the present invention is exemplified by the following tests in which the seeds of a variety of monocotyledonous and dicotyledonous plants are separately mixed with potting soil and planted on top of approximately one inch of soil in separate pint cups. […] The treated cups are then placed on greenhouse benches, watered and cared for in accordance with conventional greenhouse procedures. From four to five weeks after treatment, the tests are terminated and each cup is examined and rated according to the rating system provided in Example 46.

[2] = test system: TRZAWR Wheat, Winter, cv Riband; assay: Postemergence herbicidal evaluation, TRZAWR; assay type: in vivo, Triticum aestivum; settings: postemergence spray, rated about two-three weeks after treatment
Protocol: as §1

ABUTH Velvetleaf [3] = assay: Postemergence herbicidal evaluation, ABUTH; assay type: in vivo, Abutilon theophrasti, Medic.; settings: postemergence spray, rated about two-three weeks after treatment
Protocol: as §1

GLXMAW Soybean, Williams = assay: Postemergence herbicidal evaluation, GLXMAW; assay type: in vivo, Glycine max, (L.) Merr. cv Williams; settings: postemergence spray, rated about two-three weeks after treatment
Protocol: as §1

ZEAMX Corn, Field [4] = assay: Postemergence herbicidal evaluation, ZEAMX; assay type: in vivo, Zea mays, L. (Sammel-Bezeichnung); settings: postemergence spray, rated about two-three weeks after treatment
Protocol: as §1

AMBEL Ragweed, Common [5] = assay: Preemergence herbicidal evaluation, AMBEL; assay type: in vivo, Ambrosia artemisifolia, L.; settings: preemergence
Excerpt: as §2

GALAP Galium = assay: Postemergence herbicidal evaluation, GALAP; assay type: in vivo, Galium aparine; settings: postemergence spray, rated about two-three weeks after treatment
Protocol: as §1

AMBEL Ragweed, Common [6] = assay: Postemergence herbicidal evaluation, AMBEL; assay type: in vivo, Ambrosia artemisifolia, L.; settings: postemergence spray, rated about two-three weeks after treatment
Protocol: as §1

ABUTH Velvetleaf [7] = assay: Preemergence herbicidal evaluation, ABUTH; assay type: in vivo, Abutilon theophrasti, Medic.; settings: preemergence
Excerpt: as §2

CASOB Sicklepod = assay: Preemergence herbicidal evaluation, CASOB; assay type: in vivo, Cassia obtusifolia, L.; settings: preemergence
Excerpt: as §2

[8] = test system: CHEAL Lambsquarters, Common; assay: Preemergence herbicidal evaluation, CHEAL; assay type: in vivo, Chenopodium album, L.; settings: preemergence
Excerpt: as §2

## CCc1ccccc1-n1nnc2cc(F)c(-n3c(=O)cc(C(F)(F)F)n(C)c3=O)cc21 [Example 25]
ECHOG Barnyardgrass; 0.008 kg/ha
  Postemergence herbicidal rating ECHCG: 0.0
ECHOG Barnyardgrass; 0.016 kg/ha
  Postemergence herbicidal rating ECHCG: 0.0
ECHOG Barnyardgrass; 0.032 kg/ha
  Postemergence herbicidal rating ECHCG: 0.0
ECHOG Barnyardgrass; 0.062 kg/ha
  Postemergence herbicidal rating ECHCG: 0.0
ZEAMX Corn, Field [1]; rate 0.016 kg/ha
  ZEAMX herbicidal rating: 0.0
ZEAMX Corn, Field [1]; rate 0.032 kg/ha
  ZEAMX herbicidal rating: 0.0
ZEAMX Corn, Field [1]; rate 0.062 kg/ha
  ZEAMX herbicidal rating: 2.0
ZEAMX Corn, Field [1]; rate 0.125 kg/ha
  ZEAMX herbicidal rating: 4.0
[2]; 0.008 kg/ha
  Postemergence herbicidal rating TRZAWR: 1.5
[2]; 0.016 kg/ha
  Postemergence herbicidal rating TRZAWR: 2.5
[2]; 0.032 kg/ha
  Postemergence herbicidal rating TRZAWR: 3.0
[2]; 0.062 kg/ha
  Postemergence herbicidal rating TRZAWR: 3.0
ABUTH Velvetleaf [3]; 0.008 kg/ha
  Postemergence herbicidal rating ABUTH: 6.0
ABUTH Velvetleaf [3]; 0.016 kg/ha
  Postemergence herbicidal rating ABUTH: 8.0
ABUTH Velvetleaf [3]; 0.032 kg/ha
  Postemergence herbicidal rating ABUTH: 9.0
ABUTH Velvetleaf [3]; 0.062 kg/ha
  Postemergence herbicidal rating ABUTH: 9.0
GLXMAW Soybean, Williams; 0.008 kg/ha
  Postemergence herbicidal rating GLXMAW: 3.0
GLXMAW Soybean, Williams; 0.016 kg/ha
  Postemergence herbicidal rating GLXMAW: 4.5
GLXMAW Soybean, Williams; 0.032 kg/ha
  Postemergence herbicidal rating GLXMAW: 5.0
GLXMAW Soybean, Williams; 0.062 kg/ha
  Postemergence herbicidal rating GLXMAW: 6.5
ZEAMX Corn, Field [4]; 0.008 kg/ha
  Postemergence herbicidal rating ZEAMX: 3.0
ZEAMX Corn, Field [4]; 0.016 kg/ha
  Postemergence herbicidal rating ZEAMX: 3.5
ZEAMX Corn, Field [4]; 0.032 kg/ha
  Postemergence herbicidal rating ZEAMX: 4.0
ZEAMX Corn, Field [4]; 0.062 kg/ha
  Postemergence herbicidal rating ZEAMX: 5.0
AMBEL Ragweed, Common [5]; rate 0.016 kg/ha
  AMBEL herbicidal rating: 0.0
AMBEL Ragweed, Common [5]; rate 0.032 kg/ha
  AMBEL herbicidal rating: 0.0
AMBEL Ragweed, Common [5]; rate 0.062 kg/ha
  AMBEL herbicidal rating: 1.0
AMBEL Ragweed, Common [5]; rate 0.125 kg/ha
  AMBEL herbicidal rating: 3.5
GALAP Galium; 0.008 kg/ha
  Postemergence herbicidal rating GALAP: 0.0
GALAP Galium; 0.016 kg/ha
  Postemergence herbicidal rating GALAP: 0.0
GALAP Galium; 0.032 kg/ha
  Postemergence herbicidal rating GALAP: 4.0
GALAP Galium; 0.062 kg/ha
  Postemergence herbicidal rating GALAP: 4.0
AMBEL Ragweed, Common [6]; 0.008 kg/ha
  Postemergence herbicidal rating AMBEL: 0.0
AMBEL Ragweed, Common [6]; 0.016 kg/ha
  Postemergence herbicidal rating AMBEL: 0.0
AMBEL Ragweed, Common [6]; 0.032 kg/ha
  Postemergence herbicidal rating AMBEL: 2.0
AMBEL Ragweed, Common [6]; 0.062 kg/ha
  Postemergence herbicidal rating AMBEL: 2.0
ABUTH Velvetleaf [7]; rate 0.016 kg/ha
  ABUTH herbicidal rating: 3.0
ABUTH Velvetleaf [7]; rate 0.032 kg/ha
  ABUTH herbicidal rating: 6.0
ABUTH Velvetleaf [7]; rate 0.062 kg/ha
  ABUTH herbicidal rating: 6.0
ABUTH Velvetleaf [7]; rate 0.125 kg/ha
  ABUTH herbicidal rating: 9.0
CASOB Sicklepod; rate 0.016 kg/ha
  CASOB herbicidal rating: 0.0
CASOB Sicklepod; rate 0.032 kg/ha
  CASOB herbicidal rating: 0.0
CASOB Sicklepod; rate 0.062 kg/ha
  CASOB herbicidal rating: 1.5
CASOB Sicklepod; rate 0.125 kg/ha
  CASOB herbicidal rating: 2.0
[8]; rate 0.016 kg/ha
  CHEAL herbicidal rating: 9.0
[8]; rate 0.032 kg/ha
  CHEAL herbicidal rating: 9.0
[8]; rate 0.062 kg/ha
  CHEAL herbicidal rating: 9.0
[8]; rate 0.125 kg/ha
  CHEAL herbicidal rating: 9.0
